Results taken from patent US8618054B2, “Interleukin-1 receptor antagonists, compositions, and methods of treatment” (Valorisation-Rechereche Société en Commandite, priority 2004, dated 2013).
Marks after values point to notes of the source that are not given here. Values belong to the molecule of their own block, whether it stands above or below them. Where a SMILES comes first, the peptide text is derived from it. Where no end group is shown, it is not given here. [ ]: non-standard residue; d: D form.

Legend:
[1] = TNBS-induced inflammatory bowel disease rat model, Example 6 (48 h; MPO, macroscopic, histologic); assay type: in vivo; design: macroscopic evaluation (median score): scale not given here
Procedure: Colon inflammation was induced by intra-rectal/colon administration of the hapten trinitrobenzene sulphonic acid (TNBS) on male Sprague-Dawley rats (175-200 g) (Bouma, Nature Rev, 2003; Morris, Gastroenterology, 1989). Animals were anesthetized with isoflurane and TNBS dissolved in 50% ethanol (vol/vol). 120 mg/ml (TNBS) was administered into the colon (total volume of 0.25 ml per rat) using a polyethylene tube (PE50). The cannula was inserted at 8 cm from the anus and kept in place for at least 15 min after TNBS administration in order to prevent expulsion of the solution. […] A third group (control) was not injected with TNBS. Six days after administration of TNBS, rats were killed by CO2 inhalation. Day 6 was chosen as an endpoint because by day 7 spontaneous tissue regeneration begins and this can mask the therapeutic effect of the tested peptide or peptide derivative. Colon was removed and examined macroscopically (adhesions, ulcerations, discoloration and bleeding) and histologically (neutrophil infiltration, epithelial injury, crypt distortion and ulcerations) (Anthony et al. 1995; Padol et al. 2000; Dieleman, L A, et al. 1997; Torres M I et al. 1999). Two animals per group were studied.
Colon inflammation was induced by intra-rectal/colon administration of the hapten trinitrobenzene sulphonic acid (TNBS) as described in Example 4. Two hours prior to TNBS administration, peptides, peptidomimetics or 0.9% saline were administered intravenously (iv) via the caudal vein (various concentrations of mg/kg/d) (total volume of 0.3 ml). […] A third group (control) was not injected with TNBS. […] Also, these IL-1R antagonists were given twice a day (BID); Remicade® (anti-TNFα) (10 mg/kg) and dexamethasone (0.75 mg/kg) were administered intraperitoneally but only once a day (qd). The intrarectal administration (ir) of 101.10, 101.113 (1 and 2.5 mg/kg), and 5-ASA (50 mg/kg) was done one hour after TNBS administration, and twice a day, except for 5-ASA which is once a day. Finally, 101.10 (1-5 mg/kg) was also administered orally by gavage (po), twice a day. Forty-eight hours after administration of TNBS, rats were killed by CO2 inhalation. Colon was removed and assessed macroscopically (adhesions, ulcerations, discoloration and bleeding) and histologically (neutrophil infiltration, epithelial injury, crypt distortion and ulcerations). One to seven animals per group were studied, according to treatments. Myeloperoxidase (MPO) activity was measured on tissue lysates.

IL-1R/IL-1RacP receptor [2] = target: T1, IL-1R/IL-1RacP receptor (Sus scrofa, UniProt A0A5G2QSI4); assay: IL-1-induced PGE2 synthesis in piglet brain microvascular endothelial cells; assay type: cell-based, porcine; settings: for Emax: Table 4, read-out: PGE2 synthesis in endothelial cells (porcine) Emax (%); for inhibition of IL-1-induced PGE2 synthesis, compared with parent API-101: alanine scan peptides 10^−6M, endothelial cells
T1 construct: endogenous in cells; host or cells: piglet brain microvascular endothelial cells
T1 sequence (A0A5G2QSI4 21-572): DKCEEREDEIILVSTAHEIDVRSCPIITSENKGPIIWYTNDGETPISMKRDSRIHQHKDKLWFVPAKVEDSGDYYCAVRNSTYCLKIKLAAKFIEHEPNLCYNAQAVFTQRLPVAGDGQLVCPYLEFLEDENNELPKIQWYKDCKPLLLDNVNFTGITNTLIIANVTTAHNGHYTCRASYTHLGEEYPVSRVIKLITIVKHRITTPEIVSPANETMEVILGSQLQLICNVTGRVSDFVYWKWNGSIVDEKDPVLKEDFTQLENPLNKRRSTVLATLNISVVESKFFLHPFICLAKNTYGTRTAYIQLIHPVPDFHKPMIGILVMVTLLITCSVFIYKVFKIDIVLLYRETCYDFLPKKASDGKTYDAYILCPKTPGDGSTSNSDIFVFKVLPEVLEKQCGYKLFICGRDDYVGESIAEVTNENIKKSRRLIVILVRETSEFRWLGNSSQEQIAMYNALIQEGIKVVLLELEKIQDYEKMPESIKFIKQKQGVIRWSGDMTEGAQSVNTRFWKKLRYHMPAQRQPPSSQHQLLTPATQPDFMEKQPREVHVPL
Procedure: (§1) It is well known in the art that IL-1 induces the synthesis of prostaglandin E2 (PGE2) in endothelial cells and/or chondrocytes in vitro. Therefore, human chondrocytes and piglet brain microvascular endothelial cells were pre-incubated 45-60 minutes at 37° C. with peptide API-101 (^10−6M) and human IL-1 (10 ng/ml) was added in the growing medium. After 24 hours of incubation, growth medium was collected and evaporated. PGE2 measurement was determined by RIA assay with a commercial kit (Cederlane).

IL-1R/IL-1RacP receptor [3] = target: T2, IL-1R/IL-1RacP receptor (Homo sapiens, UniProt P14778); assay: IL-1β-induced proliferation in TF-1 cells; assay type: cell-based; design: endogenous in cells; host or cells: TF-1 cells
T2 sequence (P14778 18-569): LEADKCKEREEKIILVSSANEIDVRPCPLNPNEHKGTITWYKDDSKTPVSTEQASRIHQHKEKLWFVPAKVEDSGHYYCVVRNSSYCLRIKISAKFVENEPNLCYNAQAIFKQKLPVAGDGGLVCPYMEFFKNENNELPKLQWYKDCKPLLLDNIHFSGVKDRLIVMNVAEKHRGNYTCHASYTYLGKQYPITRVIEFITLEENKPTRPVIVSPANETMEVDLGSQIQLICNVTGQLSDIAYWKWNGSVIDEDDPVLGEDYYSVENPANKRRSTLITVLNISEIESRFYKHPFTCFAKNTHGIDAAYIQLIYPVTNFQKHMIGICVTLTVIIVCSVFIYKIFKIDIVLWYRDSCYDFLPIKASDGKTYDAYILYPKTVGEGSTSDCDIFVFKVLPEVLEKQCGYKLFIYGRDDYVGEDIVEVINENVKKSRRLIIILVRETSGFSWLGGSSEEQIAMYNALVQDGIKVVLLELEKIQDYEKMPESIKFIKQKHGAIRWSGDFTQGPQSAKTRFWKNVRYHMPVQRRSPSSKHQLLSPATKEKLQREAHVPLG

IL-1R/IL-1RacP receptor [4] = assay: Ex vivo vasomotricity: reversal of IL-1β-induced vasodilation of piglet pial vessels; settings: IL-1β 75 ng/ml
Procedure: Ex vivo vasomotor response on brain vessels was performed as described (Li et al., 1996; Hou et al., 2000; Hou et al., 2001; Hou et al., 2003). Brains were removed from Yorkshire piglets. Slices of cortex exposing the pial vessels were pinned to a wax base of a 20 ml bath containing Krebs buffer (pH 7.4) equilibrated with 95% O2, 5% CO2 and maintained at 37° C. Microvessels were visualized and recorded using a video camera mounted on a dissecting microscope. Vascular diameter was measured using a digital image analyzer. Vascular diameter was recorded before and after topical application of pre-constricting agent, U46619 (10^−7 M). After stabilization of preparation, the ligand (IL-1β, 75 ng/ml) was added until stable vasodilation was detected. Peptides were subsequently added at different concentrations from 10^−10 to 10^−5 M. Reversal of vasodilatation was visualized and measured as previously described (Hou, et al. 2000; Hou et al. 2001; Hou et al. 2003); triplicate measurements were conducted on 2 animals.

IL-1R/IL-1RacP receptor [5] = target: T2, IL-1R/IL-1RacP receptor; assay: IL-1-induced PGE2 synthesis in human chondrocytes; assay type: cell-based; design: endogenous in cells; settings: alanine scan peptides 10^−6M
Procedure: as §1

[6] = Intrarectal administration, 50.0-qd mg/kg/d
[7] = Table 4: TF-1 proliferation and PGE2 synthesis in endothelial cells, derivatives of 101.107
[8] = Table 5, derivatives of 101.113
[9] = Continuous infusion (ip), 8.0 mg/kg/d
[10] = Intermittent injection (ip), 10.0-qd mg/kg/d

Emax (IL-1R/IL-1RacP receptor [3]; TF-1, Table 5): 100%
activity of the peptide, in words (IL-1R/IL-1RacP receptor [3]; [8]): relatively decreased
Molecule: CC(C)C[C@@H](NC(=O)[C@@H](CCC(=O)O)NC(=O)[C@H]1CCCN1C(=O)[C@H](NC(=O)[C@@H](Cc1c[nH]c2ccccc12)NC(=O)[C@H](N)CCCNC(=N)N)[C@H](C)O)C(N)=O [API-101.128, RWTPEL]

activity of the peptide, in words (IL-1R/IL-1RacP receptor [3]; [8]): relatively decreased
Molecule: CC(C)C[C@@H](NC(=O)[C@@H](CCC(=O)O)NC(=O)[C@H]1CCCN1C(=O)[C@H](NC(=O)[C@@H](Cc1ccccc1)NC(=O)[C@H](N)CCCNC(=N)N)[C@H](C)O)C(N)=O [API-101.132, RFTPEL] (HELM PEPTIDE1{[dR].[dF].[dT].[dP].[dE].[dL].[am]}$$$$V2.0; N-terminus and C-terminus assumed)

activity of the peptide, in words (IL-1R/IL-1RacP receptor [3]; [8]): little or no activity
Molecule: CC(C)C[C@@H](NC(=O)[C@@H](CCC(=O)O)NC(=O)[C@H]1CCCN1C(=O)[C@H](NC(=O)[C@@H](Cc1ccc(O)cc1)NC(=O)[C@H](N)CCCNC(N)=O)[C@H](C)O)C(N)=O [API-101.134, XYTPEL (X = Citrulline)]

activity of the peptide, in words (IL-1R/IL-1RacP receptor [3]; [8]): lowered but not lost completely
Molecule: CC(C)C[C@@H](NC(=O)[C@@H](CCC(=O)O)NC(=O)[C@H]1CCCN1C(=O)[C@H](NC(=O)[C@@H](Cc1ccc(O)cc1)NC(=O)[C@@H](N)CCCNC(=N)N)[C@H](C)O)C(N)=O [API-101.135, *RYTPEL]

reversal of IL-1β-induced vasodilation (IL-1R/IL-1RacP receptor [4]): reversed the vasodilation
Molecule: APRATVELA [API-101.3]

activity of the peptide, in words (IL-1R/IL-1RacP receptor [3]; [8]): completely abolished the activity
Molecule: RFVPELA [API-101.127]

activity of the peptide, in words (IL-1R/IL-1RacP receptor [3]; [7]): completely lost
Molecule: XRYTPELA (X = Acetyl) (Ac-[dR][dY][dT][dP][dE][dL][dA]) [API-101.121]

activity of the peptide, in words (IL-1R/IL-1RacP receptor [3]; [8]): little or no activity
Molecule: XYTPEL (X = Ornithine) [API-101.126]

Second part, the molecule before the results:

Molecule: Nc1ccc(O)c(C(=O)O)c1 [5-ASA, reference compound]
MPO (% of TNBS + Saline) [1, 6]: 49 % of TNBS + Saline
histologic evaluation (median score) [1, 6]: 3.3
macroscopic evaluation (median score) [1, 6]: 1.5

Molecule: CC(C)C[C@@H](NC(=O)[C@@H](CCC(=O)O)NC(=O)[C@H]1CCCN1C(=O)[C@H](NC(=O)[C@@H](Cc1ccc(O)cc1)NC(=O)[C@H](N)CCCCN)[C@H](C)O)C(=O)N[C@H](C)C(N)=O [API-101.114, KYTPELA] (HELM PEPTIDE1{[dK].[dY].[dT].[dP].[dE].[dL].[dA].[am]}$$$$V2.0; N-terminus and C-terminus assumed)
Emax (IL-1R/IL-1RacP receptor [2]): 50%
activity of the peptide, in words (IL-1R/IL-1RacP receptor [3]; [7]): maintains its activity

Molecule: CC(C)C[C@@H](NC(=O)[C@@H](CCC(=O)O)NC(=O)[C@H]1CCCN1C(=O)[C@H](NC(=O)[C@@H](Cc1ccc(O)cc1)NC(=O)[C@H](N)CCCN)[C@H](C)O)C(=O)N[C@H](C)C(N)=O [API-101.115, XYTPELA (X = Ornithine)] (HELM PEPTIDE1{[NCCC[C@@H](N)C(=O)[*:2]].[dY].[dT].[dP].[dE].[dL].[dA].[am]}$$$$V2.0; N-terminus and C-terminus assumed)
activity of the peptide, in words (IL-1R/IL-1RacP receptor [3]; [7]): maintains its activity

Molecule: CC(C)C[C@@H](NC(=O)[C@@H](CCC(=O)O)NC(=O)[C@H]1CCCN1C(=O)[C@H](NC(=O)[C@@H](Cc1c[nH]c2ccccc12)NC(=O)[C@H](N)CCCNC(=N)N)[C@H](C)O)C(=O)N[C@H](C)C(N)=O [API-101.116, RWTPELA] (HELM PEPTIDE1{[dR].[dW].[dT].[dP].[dE].[dL].[dA].[am]}$$$$V2.0; N-terminus and C-terminus assumed)
Emax (IL-1R/IL-1RacP receptor [2]): 45%

Molecule: CC(C)C[C@@H](NC(=O)[C@@H](CC(=O)O)NC(=O)[C@H]1CCCN1C(=O)[C@H](NC(=O)[C@@H](Cc1ccc(O)cc1)NC(=O)[C@H](N)CCCNC(=N)N)[C@H](C)O)C(=O)N[C@H](C)C(N)=O [API-101.117, RYTPDLA] (HELM PEPTIDE1{[dR].[dY].[dT].[dP].[dD].[dL].[dA].[am]}$$$$V2.0; N-terminus and C-terminus assumed)
Emax (IL-1R/IL-1RacP receptor [2]): 100%

Molecule: C[C@@H]1C[C@H]2[C@@H]3CCC4=CC(=O)C=C[C@]4(C)[C@@]3(F)[C@@H](O)C[C@]2(C)[C@@]1(O)C(=O)CO [Dexamethasone, dexamethasone, reference compound]
MPO (% of TNBS + Saline) ([1]; Intermittent injection (ip), 0.75-qd mg/kg/d): 60 % of TNBS + Saline

Molecule: APRYTAELA [API-101.5]
inhibition of IL-1-induced PGE2 synthesis, compared with parent API-101 (IL-1R/IL-1RacP receptor [2]): lost almost all activity
inhibition of IL-1-induced PGE2 synthesis, compared with parent API-101 (IL-1R/IL-1RacP receptor [5]): lost almost all activity

Molecule: APRYTVEAA [API-101.7]
inhibition of IL-1-induced PGE2 synthesis, compared with parent API-101 (IL-1R/IL-1RacP receptor [2]): lost almost all activity
inhibition of IL-1-induced PGE2 synthesis, compared with parent API-101 (IL-1R/IL-1RacP receptor [5]): lost almost all activity

Molecule: KYTPEL ([dK][dY][dT][dP][dE][dL]) [API-101.133]
activity of the peptide, in words (IL-1R/IL-1RacP receptor [3]; [8]): little or no activity

Molecule: Kineret: natural soluble receptor IL-1Ra mimetic, Anakinra, developed by Amgen [reference compound]
MPO (% of TNBS + Saline) [1, 9]: 63 % of TNBS + Saline
histologic evaluation (median score) [1, 9]: 2 (Small ulcer (<5 crypts))

Molecule: Remicade: anti-TNFα [reference compound]
MPO (% of TNBS + Saline) [1, 10]: 88 ± 41 % of TNBS + Saline
histologic evaluation (median score) [1, 10]: 2.5 (1-3.75)**
macroscopic evaluation (median score) [1, 10]: 0.5
